# Assay results from patent US8080237B2, “Use of tellurium compounds for protection from ultra-violet radiation” (priority 2005, dated 2011).
# Like-named read-outs stand apart in the source and are kept apart here.
# How the values were obtained:
# interferon (IFN) [1] = settings: mice; J. Natl. Cancer Inst. 88(18):1276-84, 1996; cited from earlier work
# interferon (IFN) [2] = settings: humans; Nat. Immun. Cell Growth Regul. 9(3):182-90, 1990; Immunology 70(4):473-7, 1990; cited from earlier work
# rats = experiment: Toxicity tests (LD50) in rats; type: in vivo; settings: intravenous and intramuscular administration
# IL-10 = settings: Cell Immunol. 176(2):180-5, 1997; J. Natl. Cancer Inst. 88(18):1276-84, 1996; cited from earlier work
# [3] = system: IL-10 gene expression in epidermal cells; experiment: RT-PCR for IL-10 transcripts in epidermal cells from suction blisters after in vivo UVB irradiation of volunteers' forearms; set-up: species or system human; settings: 3% AS101 in petroleum jelly U.S.P., topical on forearm before UVB; blisters 24 h after UVB exposure; compared with UVB alone; G3PDH as control transcript
# Experimental: In normal volunteers, suction blisters were induced by vacuum and heat on normal skin, or on UVB-irradiated skin of volar forearms 24 h after exposure. Single cell suspensions of epidermal cells were prepared by limited trypsinization of the blister roof. Briefly, epidermal sheets were washed in PBS (Biofluids. Roekville. MD) and floated in 0.5% trypsin (United Stares Biochemical Corp. Cleveland. OH) for 45 min al 37° C., transferred to HBSS (Biofluids) containing 0.05 DNase (Sigma Chemical Co. SI. Louis. MO) and 10% heat-inactivated pooled human AB^+ serum (Sigma Chemical Co.) and disaggregated by repeated aspirations and expulsions through a syringe. […]
# UVB irradiation in vivo was performed with 4 FS20 fluorescent lamps (Sylvania. Springfield. Va.) that emit wavelengths between 280 and 320 nm with a peak at 313 nm. Light intensity was determined using an IL-770 Germicidal-Erythemal radiometer (international Light Inc. Newburyport. Me.) equipped with a sensor and a 313-nm filter. […]
# The frozen pellets of epidermal cells were dissolved by repeated pipetting 800 μl of lysis bufer and transferred to RNase-free Eppendorf tubes containing 500 μg of superparamagnetic polystyrene Dynaheads Oligo(dT)25 (Dynal. Great Neck. N.Y.). […] The concentration of mRNA was measured on a Beckman DU-64 spectrophotometer employing a 5 μl Ultra microcell. […]
smiles,measurement,setting,value
"Cl[TeH]1(Cl)(Cl)OCCO1.N [AS101, ammonium trichloro(dioxyethylene-O,O′)tellurate]",activation of interferon (IFN),interferon (IFN) [1],potent activator of interferon
same,activation of interferon (IFN),interferon (IFN) [2],potent activator of interferon
same,LD50 relative to the immunologically effective dose,rats,500-1000 folds
same,effect on IL-10 at the m-RNA level,IL-10,inhibit IL-10 at the m-RNA level
same,"IL-10 transcription in epidermal cells after UVB (RT-PCR, FIG. 1)",[3],significant decrease of IL-10
